Reference: patent publication US12371428B2 (Exelixis, Inc., priority 2019, dated 2025)
Structures can show the parent of a compound that is named as a salt.

Experiments:
[1] = biological target: Human KDR (residues 790-1356) (Homo sapiens (Human), UniProt P35968); experiment: Human KDR kinase assay, HTRF KinEase (Example B-2); type: biochemical; details: protocol of Example B-2 (other compounds)
Method in brief: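 Ten compound concentrations (3% DMSO final) were pre-plated, then KDR (790-1356) with biotinylated peptide in Mg/Mn/DTT buffer was added; ATP at Km (4.0 μM) started a 40 min room-temperature reaction. Detection used Eu-TK antibody and SA-XL665 in EDTA buffer; activity normalized to DMSO and reference inhibitor, IC50 by logistic fit.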

[2] = biological target: Human MET (residues 956-1390) (Homo sapiens (Human), UniProt P08581); experiment: Human Met kinase assay, HTRF KinEase (Example D-2); type: biochemical; details: protocol of Example D-2 (other compounds); read-out: c-Met IC50
Method in brief: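 MET kinase domain (956-1390), 0.1 ng/well, in buffer with 5 mM MgCl2, 1 mM DTT and 1 mM MnCl2, phosphorylated a biotinylated peptide at ATP Km for 40 min at RT; 10 concentrations, 3% DMSO final. EDTA-stopped HTRF read after 60 min; IC50 from a 4-parameter logistic fit.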

[3] = biological target: KDR (phospho-KDR, VEGF165-stimulated HUVEC cells) (Homo sapiens (Human), UniProt P35968); experiment: KDR autophosphorylation ELISA in HUVEC cells (Example G); type: cell-based; details: cellular activity; KDR autophosphorylation ELISA in HUVEC cells
Method in brief: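 Inhibition of VEGF165-driven KDR autophosphorylation is measured in primary human umbilical vein endothelial cells after 24 h serum deprivation. Compound preincubation lasts 1 h before a 5-minute challenge with 100 ng/mL ligand, and phosphorylated receptor is then measured by ELISA in the lysates.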

[4] = biological target: Mer (phospho-Mer, MERTK-transfected 293A cells) (Homo sapiens (Human), UniProt Q12866); experiment: Mer autophosphorylation ELISA in transient transfected 293A cells (Example H); type: cell-based; details: cellular activity; Mer autophosphorylation ELISA in transient transfected 293A cells
Method in brief: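 IC50 from phospho-Mer ELISA of MERTK-transfected 293A cell lysates after 1 h treatment with serially diluted compound in serum-free medium.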

Human MET (residues 956-1390), sequence (P08581 956-1390): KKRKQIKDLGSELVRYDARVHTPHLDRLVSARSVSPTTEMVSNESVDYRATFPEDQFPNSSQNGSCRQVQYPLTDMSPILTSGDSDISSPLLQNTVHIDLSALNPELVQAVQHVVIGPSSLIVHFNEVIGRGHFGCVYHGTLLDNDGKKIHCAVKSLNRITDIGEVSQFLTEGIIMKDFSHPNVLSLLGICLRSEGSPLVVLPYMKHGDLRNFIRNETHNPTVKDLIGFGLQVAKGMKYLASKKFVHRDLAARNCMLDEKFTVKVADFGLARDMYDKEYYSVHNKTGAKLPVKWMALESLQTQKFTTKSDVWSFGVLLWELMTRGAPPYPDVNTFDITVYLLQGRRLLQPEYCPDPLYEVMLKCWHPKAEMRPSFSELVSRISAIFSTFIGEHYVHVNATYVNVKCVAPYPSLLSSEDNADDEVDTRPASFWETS
Mer (phospho-Mer, MERTK-transfected 293A cells), sequence (Q12866 21-999): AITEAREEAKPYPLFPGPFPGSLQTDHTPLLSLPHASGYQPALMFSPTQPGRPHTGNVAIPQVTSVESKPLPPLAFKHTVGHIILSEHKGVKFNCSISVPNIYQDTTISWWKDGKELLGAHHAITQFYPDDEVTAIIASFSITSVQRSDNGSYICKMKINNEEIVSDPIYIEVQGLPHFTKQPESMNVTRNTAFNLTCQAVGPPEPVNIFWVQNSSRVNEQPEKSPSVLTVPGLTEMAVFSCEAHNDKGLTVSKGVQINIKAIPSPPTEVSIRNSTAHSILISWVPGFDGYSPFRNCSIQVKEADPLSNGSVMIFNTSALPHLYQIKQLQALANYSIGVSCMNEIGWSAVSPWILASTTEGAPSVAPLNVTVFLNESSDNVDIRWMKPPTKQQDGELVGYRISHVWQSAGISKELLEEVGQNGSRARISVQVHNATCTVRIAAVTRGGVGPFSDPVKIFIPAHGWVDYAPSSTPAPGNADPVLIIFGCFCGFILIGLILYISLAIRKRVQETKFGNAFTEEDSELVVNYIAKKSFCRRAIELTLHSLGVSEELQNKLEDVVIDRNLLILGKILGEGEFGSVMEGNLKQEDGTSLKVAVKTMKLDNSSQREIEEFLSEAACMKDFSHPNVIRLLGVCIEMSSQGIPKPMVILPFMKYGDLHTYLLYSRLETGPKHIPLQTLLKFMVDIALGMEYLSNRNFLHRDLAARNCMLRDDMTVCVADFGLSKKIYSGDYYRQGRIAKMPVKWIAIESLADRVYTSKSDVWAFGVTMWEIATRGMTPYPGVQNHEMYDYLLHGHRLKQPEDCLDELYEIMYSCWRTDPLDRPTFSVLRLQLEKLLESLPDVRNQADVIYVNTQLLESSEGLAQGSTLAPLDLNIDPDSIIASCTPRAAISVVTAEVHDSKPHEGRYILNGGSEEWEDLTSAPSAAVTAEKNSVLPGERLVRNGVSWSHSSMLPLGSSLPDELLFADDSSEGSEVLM
KDR (phospho-KDR, VEGF165-stimulated HUVEC cells), sequence (P35968 20-1356): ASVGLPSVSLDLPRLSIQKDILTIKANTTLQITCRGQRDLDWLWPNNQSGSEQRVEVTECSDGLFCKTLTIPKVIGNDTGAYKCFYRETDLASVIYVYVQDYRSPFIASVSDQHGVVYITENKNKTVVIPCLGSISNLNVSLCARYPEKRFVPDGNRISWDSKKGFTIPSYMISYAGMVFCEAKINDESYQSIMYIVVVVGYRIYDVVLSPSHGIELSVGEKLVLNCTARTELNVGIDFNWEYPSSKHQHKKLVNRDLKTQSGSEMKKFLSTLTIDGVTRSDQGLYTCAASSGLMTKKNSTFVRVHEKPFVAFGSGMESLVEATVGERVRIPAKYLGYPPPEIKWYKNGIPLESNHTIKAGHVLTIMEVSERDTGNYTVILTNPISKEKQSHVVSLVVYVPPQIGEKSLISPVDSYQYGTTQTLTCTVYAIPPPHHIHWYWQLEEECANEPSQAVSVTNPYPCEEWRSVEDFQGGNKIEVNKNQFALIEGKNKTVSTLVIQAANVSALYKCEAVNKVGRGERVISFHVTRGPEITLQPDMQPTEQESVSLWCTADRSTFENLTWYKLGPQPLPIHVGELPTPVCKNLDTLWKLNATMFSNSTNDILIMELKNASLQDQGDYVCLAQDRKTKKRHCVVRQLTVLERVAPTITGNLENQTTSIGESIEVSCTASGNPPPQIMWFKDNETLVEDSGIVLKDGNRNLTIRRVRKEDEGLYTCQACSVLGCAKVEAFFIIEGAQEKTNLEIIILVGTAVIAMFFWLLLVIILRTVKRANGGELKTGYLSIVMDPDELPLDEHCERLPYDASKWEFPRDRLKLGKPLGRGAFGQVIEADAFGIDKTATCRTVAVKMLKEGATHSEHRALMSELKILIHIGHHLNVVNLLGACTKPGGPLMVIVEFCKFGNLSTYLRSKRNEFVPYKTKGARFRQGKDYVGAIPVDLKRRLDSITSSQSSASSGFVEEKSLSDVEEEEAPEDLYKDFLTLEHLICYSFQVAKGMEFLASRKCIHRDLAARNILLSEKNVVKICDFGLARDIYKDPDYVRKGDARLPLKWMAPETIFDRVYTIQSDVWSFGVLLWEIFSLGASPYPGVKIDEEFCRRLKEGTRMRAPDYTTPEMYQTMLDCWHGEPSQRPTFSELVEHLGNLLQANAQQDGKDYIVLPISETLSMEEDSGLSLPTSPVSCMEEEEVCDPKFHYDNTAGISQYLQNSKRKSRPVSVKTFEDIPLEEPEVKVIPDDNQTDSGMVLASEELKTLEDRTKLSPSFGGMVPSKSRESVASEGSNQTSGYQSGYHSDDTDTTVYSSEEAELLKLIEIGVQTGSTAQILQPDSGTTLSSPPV
Human KDR (residues 790-1356), sequence (P35968 790-1356): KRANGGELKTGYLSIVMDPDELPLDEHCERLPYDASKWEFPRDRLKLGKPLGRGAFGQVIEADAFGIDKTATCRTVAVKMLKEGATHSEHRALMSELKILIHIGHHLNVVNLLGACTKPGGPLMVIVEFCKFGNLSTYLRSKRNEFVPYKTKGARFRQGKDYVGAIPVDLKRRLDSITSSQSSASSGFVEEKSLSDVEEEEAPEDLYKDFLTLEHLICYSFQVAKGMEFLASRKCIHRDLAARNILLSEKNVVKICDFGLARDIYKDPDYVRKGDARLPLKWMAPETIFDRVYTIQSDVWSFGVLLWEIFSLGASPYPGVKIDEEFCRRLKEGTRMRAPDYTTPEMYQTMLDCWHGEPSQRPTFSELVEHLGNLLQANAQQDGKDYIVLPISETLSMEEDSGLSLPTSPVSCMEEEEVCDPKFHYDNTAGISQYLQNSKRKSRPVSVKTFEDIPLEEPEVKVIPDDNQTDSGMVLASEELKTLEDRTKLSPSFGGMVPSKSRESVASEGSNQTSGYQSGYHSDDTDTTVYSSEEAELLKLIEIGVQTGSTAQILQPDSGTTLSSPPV

COc1cnc2c(Oc3ccc(NC(=O)c4n[nH]c(C)c(-c5ccc(F)cc5)c4=O)cc3F)ccnc2c1 [Compound 246, N-[3-Fluoro-4-[(7-methoxy-1,5-naphthyridin-4-yl)oxy]phenyl]-5-(4-fluorophenyl)-6-methyl-4-oxo-1H-pyridazine-3-carboxamide]
IC50 [1]: < 100 nM | IC50 [2]: < 100 nM | IC50 [3]: < 100 nM | IC50 [4]: < 100 nM

COCCOc1nc2c(Oc3ccc(NC(=O)c4n[nH]c(C)c(-c5ccc(F)cc5C)c4=O)cc3F)ccnc2cc1OC [Compound 252, N-[3-Fluoro-4-[[7-methoxy-6-(2-methoxyethoxy)-1,5-naphthyridin-4-yl]oxy]phenyl]-5-(4-fluoro-2-methylphenyl)-6-methyl-4-oxo-1H-pyridazine-3-carboxamide]
IC50 [1]: 100 to 300 nM | IC50 [2]: < 100 nM | IC50 [3]: < 100 nM | IC50 [4]: < 100 nM

COCc1nc(C)c(-c2ccc(F)cc2C)c(O)c1C(=O)Nc1ccc(Oc2ccnc3cc(OC)cnc23)c(F)c1 [Compound 193, N-[3-Fluoro-4-[(7-methoxy-1,5-naphthyridin-4-yl)oxy]phenyl]-5-(4-fluoro-2-methylphenyl)-4-hydroxy-2-(methoxymethyl)-6-methylpyridine-3-carboxamide]
IC50 [1]: 100 to 300 nM | IC50 [2]: < 100 nM | IC50 [3]: < 100 nM | IC50 [4]: < 100 nM

COc1cnc2c(Oc3ccc(NC(=O)c4cnc(C)c(-c5ccc(F)cc5C)c4O)cc3)ccnc2c1 [Compound 176, 5-(4-Fluoro-2-methylphenyl)-4-hydroxy-N-[4-[(7-methoxy-1,5-naphthyridin-4-yl)oxy]phenyl]-6-methylpyridine-3-carboxamide]
IC50 [1]: > 300 nM | IC50 [2]: < 100 nM | IC50 [3]: < 100 nM | IC50 [4]: < 100 nM

COc1cc2nccc(Oc3ccc(NC(=O)c4cn(C)c(C)c(-c5cccc(F)c5)c4=O)cc3F)c2nc1OC [Compound 37, N-[4-[(6,7-Dimethoxy-1,5-naphthyridin-4-yl)oxy]-3-fluorophenyl]-5-(3-fluorophenyl)-1,6-dimethyl-4-oxopyridine-3-carboxamide hydrochloride]
IC50 [1]: 100 to 300 nM | IC50 [2]: < 100 nM | IC50 [3]: 100 to 300 nM | IC50 [4]: < 100 nM

COCc1nc(C)c(-c2ccc(F)cc2)c(O)c1C(=O)Nc1ccc(Oc2ccnc3cc(OC)cnc23)cc1 [Compound 185, 5-(4-Fluorophenyl)-4-hydroxy-2-(methoxymethyl)-N-[4-[(7-methoxy-1,5-naphthyridin-4-yl)oxy]phenyl]-6-methylpyridine-3-carboxamide]
IC50 [1]: < 100 nM | IC50 [2]: < 100 nM | IC50 [3]: < 100 nM | IC50 [4]: < 100 nM

COc1cc2nccc(Oc3ccc(NC(=O)c4cn(C)c(C)c(-c5ccc(F)cc5C)c4=O)cc3)c2nc1OC [Compound 196, N-[4-[(6,7-Dimethoxy-1,5-naphthyridin-4-yl)oxy]phenyl]-5-(4-fluoro-2-methylphenyl)-1,6-dimethyl-4-oxopyridine-3-carboxamide]
IC50 [1]: 100 to 300 nM | IC50 [2]: < 100 nM | IC50 [3]: < 100 nM | IC50 [4]: < 100 nM

COCc1nc(C)c(-c2ccc(F)cc2)c(O)c1C(=O)Nc1ccc(Oc2ccnc3cc(OC)c(OC)nc23)c(F)c1 [Compound 184, N-[4-[(6,7-Dimethoxy-1,5-naphthyridin-4-yl)oxy]-3-fluorophenyl]-5-(4-fluorophenyl)-4-hydroxy-2-(methoxymethyl)-6-methylpyridine-3-carboxamide]
IC50 [1]: < 100 nM | IC50 [2]: < 100 nM | IC50 [3]: < 100 nM | IC50 [4]: < 100 nM

COc1cc2nccc(Oc3ccc(NC(=O)c4ccc(C)n(-c5ccc(F)cc5C)c4=O)cc3F)c2nc1OC [Compound 219, N-[4-[(6,7-Dimethoxy-1,5-naphthyridin-4-yl)oxy]-3-fluorophenyl]-1-(4-fluoro-2-methylphenyl)-6-methyl-2-oxopyridine-3-carboxamide]
IC50 [1]: < 100 nM | IC50 [2]: < 100 nM | IC50 [3]: < 100 nM | IC50 [4]: < 100 nM

COc1cc2nccc(Oc3ccc(NC(=O)c4cn(C)cc(-c5cccc(F)c5)c4=O)cc3F)c2nc1OC [Compound 35, N-[4-[(6,7-Dimethoxy-1,5-naphthyridin-4-yl)oxy]-3-fluorophenyl]-5-(3-fluorophenyl)-1-methyl-4-oxopyridine-3-carboxamide hydrochloride]
IC50 [1]: < 100 nM | IC50 [2]: < 100 nM | IC50 [3]: < 100 nM | IC50 [4]: < 100 nM

COCc1nc(C)c(-c2ccc(F)cc2C)c(O)c1C(=O)Nc1ccc(Oc2ccnc3cc(OC)cnc23)cc1 [Compound 194, 5-(4-Fluoro-2-methylphenyl)-4-hydroxy-2-(methoxymethyl)-N-[4-[(7-methoxy-1,5-naphthyridin-4-yl)oxy]phenyl]-6-methylpyridine-3-carboxamide]
IC50 [1]: 100 to 300 nM | IC50 [2]: < 100 nM | IC50 [3]: < 100 nM | IC50 [4]: < 100 nM

COCc1nc(C)c(-c2ccc(F)cc2)c(O)c1C(=O)Nc1ccc(Oc2ccnc3ccc(OC)nc23)c(F)c1 [Compound 189, N-[3-Fluoro-4-[(6-methoxy-1,5-naphthyridin-4-yl)oxy]phenyl]-5-(4-fluorophenyl)-4-hydroxy-2-(methoxymethyl)-6-methylpyridine-3-carboxamide]
IC50 [1]: 100 to 300 nM | IC50 [2]: < 100 nM | IC50 [3]: < 100 nM | IC50 [4]: < 100 nM

COc1cnc2c(Oc3ccc(NC(=O)c4cn(C)c(CO)c(-c5ccc(F)cc5)c4=O)cc3)ccnc2c1 [Compound 223, 5-(4-Fluorophenyl)-6-(hydroxymethyl)-N-[4-[(7-methoxy-1,5-naphthyridin-4-yl)oxy]phenyl]-1-methyl-4-oxopyridine-3-carboxamide]
IC50 [1]: > 300 nM | IC50 [2]: < 100 nM | IC50 [3]: > 300 nM | IC50 [4]: < 100 nM

COc1cc2nccc(Oc3ccc(NC(=O)c4ccc(C)n(-c5ccc(F)cc5C)c4=O)cc3)c2nc1OC [Compound 225, N-[4-[(6,7-Dimethoxy-1,5-naphthyridin-4-yl)oxy]phenyl]-1-(4-fluoro-2-methylphenyl)-6-methyl-2-oxopyridine-3-carboxamide]
IC50 [1]: < 100 nM | IC50 [2]: < 100 nM | IC50 [3]: < 100 nM | IC50 [4]: < 100 nM

COc1cnc2c(Oc3ccc(NC(=O)c4nnc(C)c(-c5ccc(F)cc5C)c4O)cc3F)ccnc2c1 (single isomer, unassigned) [Compound 249C, N-[3-Fluoro-4-[(7-methoxy-1,5-naphthyridin-4-yl)oxy]phenyl]-5-(4-fluoro-2-methylphenyl)-4-hydroxy-6-methylpyridazine-3-carboxamide]
IC50 [1]: > 300 nM | IC50 [2]: < 100 nM | IC50 [3]: < 100 nM | IC50 [4]: < 100 nM

COc1cc2nccc(Oc3ccc(NC(=O)c4cn(C)cc(-c5ccccc5)c4=O)cc3F)c2nc1OC [Compound 33, N-[4-[(6,7-Dimethoxy-1,5-naphthyridin-4-yl)oxy]-3-fluorophenyl]-1-methyl-4-oxo-5-phenylpyridine-3-carboxamide hydrochloride]
IC50 [1]: < 100 nM | IC50 [2]: < 100 nM | IC50 [3]: < 100 nM | IC50 [4]: < 100 nM

COc1cnc2c(Oc3ccc(NC(=O)c4nnc(C)c(-c5ccc(F)cc5C)c4O)cc3F)ccnc2c1 (single isomer, unassigned) [Compound 249B, N-[3-Fluoro-4-[(7-methoxy-1,5-naphthyridin-4-yl)oxy]phenyl]-5-(4-fluoro-2-methylphenyl)-4-hydroxy-6-methylpyridazine-3-carboxamide]
IC50 [1]: > 300 nM | IC50 [2]: < 100 nM | IC50 [3]: < 100 nM | IC50 [4]: < 100 nM

COc1ccc2nccc(Oc3ccc(NC(=O)c4c(C)ncn(-c5ccc(F)cc5)c4=O)cc3F)c2n1 [Compound 234, N-[3-Fluoro-4-[(6-methoxy-1,5-naphthyridin-4-yl)oxy]phenyl]-1-(4-fluorophenyl)-4-methyl-6-oxopyrimidine-5-carboxamide]
IC50 [1]: > 300 nM | IC50 [2]: > 300 nM | IC50 [3]: 100 to 300 nM | IC50 [4]: < 100 nM

COc1cc2nccc(Oc3ccc(NC(=O)c4c(C)ncc(-c5ccc(F)cc5)c4O)cc3F)c2nc1OC [Compound 237, N-[4-[(6,7-Dimethoxy-1,5-naphthyridin-4-yl)oxy]-3-fluorophenyl]-5-(4-fluorophenyl)-4-hydroxy-2-methylpyridine-3-carboxamide]
IC50 [1]: < 100 nM | IC50 [2]: < 100 nM | IC50 [3]: < 100 nM | IC50 [4]: < 100 nM

COCc1nc(C)c(-c2ccc(F)cc2C)c(O)c1C(=O)Nc1ccc(Oc2ccnc3cc(OC)c(OC)nc23)c(F)c1 [Compound 191, N-[4-[(6,7-Dimethoxy-1,5-naphthyridin-4-yl)oxy]-3-fluorophenyl]-5-(4-fluoro-2-methylphenyl)-4-hydroxy-2-(methoxymethyl)-6-methylpyridine-3-carboxamide]
IC50 [1]: < 100 nM | IC50 [2]: < 100 nM | IC50 [3]: < 100 nM | IC50 [4]: < 100 nM
